Data published in PMC11050599, “Novel Tetracyclic Azaphenothiazines with the Quinoline Ring as New Anticancer and Antibacterial Derivatives of Chlorpromazine” (International Journal of Molecular Sciences, 2024).
Converted amounts (≈) assume the structure as drawn. Read-outs that look alike come from different tables or passages of the source.

Columns and labels:
A549 (lung cancer) = test: MTT assay, A549 cells; format: cell-based, human; details: Homo sapiens, read-out: IC50 A549
Method in brief: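 Test compounds are added to plated cells (1 × 10^4 per well) for 72 h. Cell viability is calculated as the percentage of MTT reduction compared with cells given medium alone.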

[1] = tested on: MDA-MB-231 (breast cancer); test: MTT assay, MDA-MB-231 cells; format: cell-based, human; details: for IC50: Homo sapiens, read-out: IC50 MDA; for SI MDA: SI = IC50 for normal cell line (HaCaT)/IC50 cancer cell line
Method in brief: (§1)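 Cells at 1 × 10^4 per well were exposed to compounds for 72 h, in MEM (HCT116), DMEM high glucose (MDA-MB-231, HaCaT) or RPMI (PC3), each with 10% FBS and 20 mM HEPES. Viability is given as MTT reduction relative to medium-only control (%).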

[2] = tested on: HaCaT (immortalized human keratinocytes); test: MTT assay, HaCaT normal cells; format: cell-based; details: Homo sapiens, HaCaT, 72 h, read-out: IC50 HaCaT (Table 3)
Method in brief: as §1

[3] = tested on: MiaPaCa-2 (pancreas cancer); test: MTT assay, MiaPaCa-2 cells; format: cell-based, human; details: for IC50: Homo sapiens, read-out: IC50 MiaPaCa-2; for SI MiaPaCa-2: SI = IC50 for normal cell line (HaCaT)/IC50 cancer cell line
Description: (§2) The human cell lines, such as A549 (lung cancer), MDA-MB-231 (breast cancer), MiaPaca-2 (pancreatic cancer), PC3 (metastatic prostate cancer), HCT-116 (colon carcinoma), and HaCaT (immortalized keratinocytes), were sourced from the American Type Culture Collection (ATCC) in Rockville, USA. Culturing conditions varied as follows: HCT116 cells were cultured in MEM (ThermoSci, Waltham, MA, USA), A549, MDA-MB-231, MiaPaca, HaCaT cells in DMEM High Glucose and PC3 cells were cultured in RPMI (Biowest SAS, Nuaillé, France). The growth medium consisted of 10% fetal bovine serum (FBS, Sigma-Aldrich, St. Louis, MO, USA), 20 mM HEPES (Biowest, Nuaillé, France), and antibiotics (100 U/mL of penicillin and 100 μg/mL of streptomycin) from Gibco, Grand Island, NY, USA. […] These compounds were added to 96-well plates containing study cells (1 × 10^4 cells per well) and incubated for 72 h. […] Cell absorbance results were incorporated into the formula for calculating the relative MTT level (%), enabling the assessment of cell viability following exposure to the test compounds. The cell viability percentage represents the MTT reduction in cells treated with the test compounds compared to the control sample, where only the medium was added to the cells.

PC3 (prostate cancer) = test: MTT assay, PC3 cells; format: cell-based, human; details: for IC50: Homo sapiens, read-out: IC50 PC3; for SI PC3: SI = IC50 for normal cell line (HaCaT)/IC50 cancer cell line
Description: as §2

HCT116 (colon cancer) = test: MTT assay, HCT116 cells; format: cell-based, human; details: for IC50: Homo sapiens, read-out: IC50 HCT116; for SI HCT116: SI = IC50 for normal cell line (HaCaT)/IC50 cancer cell line
Description: as §2

E. coli ATCC 25922 = test: MIC broth microdilution; format: cell-based; details: Escherichia coli, read-out: MIC E. coli ATCC 25922
Method in brief: (§3)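 Two-fold serial broth microdilution in Mueller-Hinton II broth, final inoculum adjusted to […]. Compounds dissolved in DMSO, final solvent at most 1%.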

P. aeruginosa ATCC 15442 = test: MIC broth microdilution; format: cell-based; details: Pseudomonas aeruginosa, read-out: MIC P. aeruginosa ATCC 15442
Method in brief: as §3

S. aureus ATCC 25923 = test: MIC broth microdilution; format: cell-based; details: Staphylococcus aureus, read-out: MIC S. aureus ATCC 25923
Method in brief: as §3

S. aureus ATCC 29213 = test: MIC broth microdilution; format: cell-based; details: Staphylococcus aureus, read-out: MIC S. aureus ATCC 29213
Method in brief: as §3

S. aureus ATCC 6538 = test: MIC broth microdilution; format: cell-based; details: Staphylococcus aureus, read-out: MIC S. aureus ATCC 6538
Method in brief: as §3

S. aureus NCTC 4163 = test: MIC broth microdilution; format: cell-based; details: Staphylococcus aureus, read-out: MIC S. aureus NCTC 4163
Method in brief: as §3

[4] = tested on: S. epidermidis ATCC 12228; test: MIC broth microdilution; format: cell-based; details: Staphylococcus epidermidis, read-out: MIC S. epidermidis ATCC 12228
Method in brief: as §3

[5] = tested on: S. epidermidis ATCC 35984; test: MIC broth microdilution; format: cell-based; details: for MIC: Staphylococcus epidermidis, read-out: MIC S. epidermidis ATCC 35984
Method in brief: as §3

A549 cells = test: Annexin V-FITC/PI apoptosis flow cytometry, A549; format: cell-based, human; details: for A549: Alive / A549: Early Apoptotic / A549: Necrotic / A549: Necrotic/Late Apoptotic: representative dot plot, Figure 4A, IC50, 72 h
Description: (§4) To analyze the number of cells in early apoptosis, late apoptosis, or necrosis, A549, MiaPaca-2, and HCT-116 cell lines were cultured in 6-well plates with a seeding density of 1 × 10^5 cells per well. These cells were then treated with selected compounds (4, 5, and 8) at their respective IC50 concentrations and incubated for 72 h. Subsequently, a commercially available kit, the FITC: Annexin V Apoptosis Detection Kit I from BD Biosciences Pharmingen in San Jose, CA, USA, was utilized to assess apoptosis. After 72 h the cells were harvested, washed, and labeled with Annexin V-FITC and propidium iodide (PI) following the manufacturer’s protocol (Becton Dickinson), as previously described. The stained cells were analyzed by flow cytometry. The cells were identified as early apoptotic (Annexin V+/PI−) or late apoptotic/necrotic (Annexin V+/PI+).

HCT116 cells [6] = test: Annexin V-FITC/PI apoptosis flow cytometry, HCT116; format: cell-based, human; details: for HCT-116: Alive / HCT-116: Early Apoptotic / HCT-116: Necrotic / HCT-116: Necrotic/Late Apoptotic: representative dot plot, Figure 4C, IC50, 72 h
Description: as §4

HCT116 cells [7] = test: Cell cycle analysis by flow cytometry, HCT116; format: cell-based, human; details: IC50, 24 h, compared to the control
Description: In brief, cells were seeded at a density of 1 × 10^5 cells/well on a six-well plate and allowed to adhere for 24 h. […] Both population cells (the attached and detached) were collected and centrifuged at 400× g for 5 min at 4 °C. After centrifugation, the cells were washed twice with 0.9% NaCl and subsequently fixed in 500 μL of 70 % cold ethanol overnight.
Before analysis, the fixed cells underwent another centrifugation step at 850× g for 5 min at 4 °C and were washed with PBS. Following the washes, the cells were incubated with 50 μL of RNase (100 μg/mL) and 200 μL of propidium iodide (PI) (50 μg/mL) at 37 °C for 30 min in the dark. Finally, 100 μL of PBS was added to each sample. Flow cytometry (Becton Dickinson FACS Verse, Franklin Lakes, NJ, USA) was then used to analyze the cell cycle distribution, identifying cells in various stages including sub-G1, G0/G1, S, and G2/M phases. Each assay was performed in quadruplicate.

cancer cell lines = test: MTT assay, summary over several cell lines; format: cell-based, human; details: A549 and MDA-MB-231 versus HaCaT
Description: as §2

[8] = MDA-MB-231, MTT, 72 h, MDA-MB231

Structure (SMILES): CN(C)CCCN1c2cc(Cl)ccc2Sc2cc3ccccc3nc21 [Compound 8, 3-(8-Chloroquino[3,2-b]benzo[1,4]thiazin-6-yl)-N,N-dimethylpropan-1-amine]
- IC50 (A549 (lung cancer); A549, MTT, 72 h, mean SD): 8.2 ± 3.6 µM
- IC50 [1, 8]: 52.1 ± 2.7 µM
- SI MDA [1]: 1.2
- IC50 ([2]; MTT, normal cells): 62.3 ± 2.5 µM
- IC50 ([3]; MIA PaCa-2, MTT, 72 h): 40.2 ± 0.7 µM
- SI MiaPaCa-2 [3]: 1.6
- IC50 (PC3 (prostate cancer); PC-3, MTT, 72 h): 52.1 ± 7.1 µM
- SI PC3 (PC3 (prostate cancer)): 1.2
- IC50 (HCT116 (colon cancer); HCT-116, MTT, 72 h): 1600 ± 800 nM
- MIC (E. coli ATCC 25922; ATCC25922, 19 h, 35 °C): 64 µg/mL (≈ 173 µM)
- MIC (P. aeruginosa ATCC 15442; ATCC15442, 19 h, 35 °C): 256 µg/mL (≈ 692 µM)
- MIC (S. aureus ATCC 25923; ATCC25923, 19 h, 35 °C): 8 µg/mL (≈ 21.6 µM)
- MIC (S. aureus ATCC 29213; ATCC29213, 19 h, 35 °C): 8 µg/mL (≈ 21.6 µM)
- MIC (S. aureus ATCC 6538; ATCC6538, 19 h, 35 °C): 8 µg/mL (≈ 21.6 µM)
- MIC (S. aureus NCTC 4163; NCTC4163, 19 h, 35 °C): 8 µg/mL (≈ 21.6 µM)
- MIC ([4]; ATCC12228, 19 h, 35 °C): 8 µg/mL (≈ 21.6 µM)
- MIC ([5]; ATCC35984, 19 h, 35 °C): 8 µg/mL (≈ 21.6 µM)
- cells in late apoptosis or necrosis, A549 (A549 cells; compound at IC50, 72 h): 42%
- A549: Alive (A549 cells): 62.41%
- A549: Early Apoptotic (A549 cells): 2.39%
- A549: Necrotic (A549 cells): 24.93%
- A549: Necrotic/Late Apoptotic (A549 cells): 10.27%
- cells in early apoptosis, HCT116 (HCT116 cells [6]; compound at IC50, 72 h): 9.09 ± 0.5%
- cells in late apoptosis/necrosis, HCT116 (HCT116 cells [6]; compound at IC50, 72 h): 8.55 ± 0.33%
- HCT-116: Alive (HCT116 cells [6]): 78.75%
- HCT-116: Early Apoptotic (HCT116 cells [6]): 9.09%
- HCT-116: Necrotic (HCT116 cells [6]): 3.61%
- HCT-116: Necrotic/Late Apoptotic (HCT116 cells [6]): 8.55%
- increase in the cell amount at the sub-G1 phase, HCT116 (HCT116 cells [7]): 5 fold
- increase in the number of cells in the G2/M phase, HCT116 (HCT116 cells [7]): approximately 1.3 fold
- increase in the number of cells in the S phase, HCT116 (HCT116 cells [7]): approximately 2 fold

Structure (SMILES): O=C(NCCCl)NCCCN1c2cc(Cl)ccc2Sc2cc3ccccc3nc21 [Compound 20, 1-(3-(8-Chloroquino[3,2-b]benzo[1,4]thiazin-6-yl)propyl)-3-(2-chloroethyl)urea]
- IC50 (A549 (lung cancer); A549, 72 h): 9.3 ± 1.2 µM
- IC50 ([1]; MDA-MB-231, 72 h): 48.6 ± 7.3 µM
- SI MDA [1]: 2.0
- IC50 [2]: > 100 µM
- IC50 ([3]; MIA PaCa-2, 72 h): 23.2 ± 2.7 µM
- SI MiaPaCa-2 [3]: 4.3
- IC50 (PC3 (prostate cancer); PC-3, 72 h): 34.8 ± 9.8 µM
- SI PC3 (PC3 (prostate cancer)): 2.8
- IC50 (HCT116 (colon cancer); HCT-116, 72 h): 10400 ± 1600 nM
- SI HCT116 (HCT116 (colon cancer)): 8.8
- MIC (E. coli ATCC 25922; ATCC25922, 19 h): > 256 µg/mL
- MIC (P. aeruginosa ATCC 15442; ATCC15442, 19 h): > 256 µg/mL
- MIC (S. aureus ATCC 25923; ATCC25923, 19 h): 8 µg/mL (≈ 17.9 µM)
- MIC (S. aureus ATCC 29213; ATCC29213, 19 h): 8 µg/mL (≈ 17.9 µM)
- MIC (S. aureus ATCC 6538; ATCC6538, 19 h): 8 µg/mL (≈ 17.9 µM)
- MIC (S. aureus NCTC 4163; NCTC4163, 19 h): 8 µg/mL (≈ 17.9 µM)
- MIC ([4]; ATCC12228, 19 h): 8 µg/mL (≈ 17.9 µM)
- MIC S. epidermidis ATCC 35984 ([5]; 19 h, 35 °C): 4 µg/mL (≈ 8.94 µM)
- MIC ([5]; ATCC35984, 19 h): 4 µg/mL (≈ 8.94 µM)
- A549: Alive (A549 cells): 88.24%
- A549: Early Apoptotic (A549 cells): 0.13%
- A549: Necrotic (A549 cells): 10.74%
- A549: Necrotic/Late Apoptotic (A549 cells): 0.89%
- HCT-116: Alive (HCT116 cells [6]): 83.79%
- HCT-116: Early Apoptotic (HCT116 cells [6]): 7.24%
- HCT-116: Necrotic (HCT116 cells [6]): 4.80%
- HCT-116: Necrotic/Late Apoptotic (HCT116 cells [6]): 4.17%
- increase in the cell amount at the sub-G1 phase, HCT116 (HCT116 cells [7]): 3 fold

Structure (SMILES): COc1cccc2c1C(=O)c1c(O)c3c(c(O)c1C2=O)C[C@@](O)(C(=O)CO)C[C@@H]3O[C@H]1C[C@H](N)[C@H](O)[C@H](C)O1 [DX, doxorubicin, reference compound]
- IC50 (A549 (lung cancer); A549, MTT, 72 h, mean SD): 0.6 ± 0.2 µM
- IC50 [1, 8]: 0.8 ± 0.1 µM
- SI MDA [1]: 0.15
- IC50 ([2]; MTT, normal cells): 0.3 ± 0.1 µM
- IC50 ([3]; MIA PaCa-2, MTT, 72 h): 0.6 ± 0.2 µM
- IC50 (PC3 (prostate cancer); PC-3, MTT, 72 h): 0.8 ± 0.1 µM
- SI PC3 (PC3 (prostate cancer)): 0.15
- IC50 (HCT116 (colon cancer); HCT-116, MTT, 72 h): 590 ± 20 nM
- SI HCT116 (HCT116 (colon cancer)): 0.5
- selectivity index (SI) range (cancer cell lines): 0.14–0.15
